Reference: US4778824A, “Method for suppressing a transplantation immunity and treating an allergic disease and an autoimmune disease” (Zaidan Hojin Biseibutsu Kagaku Kenkyu Kai, priority 1984, dated 1988)
Where a name gives a salt, the structure may show the parent alone.

Legend:
[1] = tested on: B-lymphocyte; test: Inhibition of LPS-induced reaction of B-lymphocyte blastogenesis (3H-thymidine uptake); format: cell-based, BALB/c mice; conditions: LPS 100 μg/ml; for ^3 H--thymidine uptake: ± S.D.
Experimental: The present inventors conducted tests to evaluate the actions of spergualin against the reaction of lymphocyte blastogenesis in accordance with the method of Waithe et al. (Waithe et al., Handbook of Experimental Immunology, page 26.1, 1978).
Spleen cells from BALB/c mice were distritubed among wells in a microplate so that each well contained 2×10^5 cells/0.2 ml. The compound was added to all wells but one, the latter being used as a control. Con A (5 μg/ml) was added to all the wells and the so prepared cell suspensions were cultivated in a 5% CO2 incubator for 72 hours at 37° C. Eight hours before the completion of the incubation, 1 μCi of ^3 H-thymidine was added to each well and the uptake of the thymidine by the cultured cells was measured with a liquid scintillation counter to estimate the progress of the reaction of T-lymphocyte blastogenesis. The percentage inhibition of the blastogenesis by the test compound was calculated by: […] wherein Adpm indicates the uptake count for the addition of only Con A and Bdpm, the count for the addition of both Con A and the test compound.
The uptake of ^3 H-thymidine by B-cell was measured in accordance with the method used in Experiment 1, except that the inducer Con A was replaced by 100 μg/ml of LPS from E. coli. The percentage inhibition of blastogenesis by the test compound was also determined by the same method as used in Experiment 1.

[2] = tested on: IgM antibody production; test: Inhibition of IgM antibody production against sheep red blood cells (plaque-forming cells); format: in vivo, CDF 1 mice; conditions: 3 days; for IgM plaque-forming cell count: ± S.D.
Text: Additionally, in accordance with the method of Jerne et al. (Jerne et al., Cell-bound Antibodies, pp. 109-122, 1963), the inventors examined the inhibitory action of spergualin on humoral immunity which is primarily the domain of the B-lymphocytes. The test procedure consisted of counting the number of spleen cells that were extracted from mice sensitized by antigenic sheep red blood cells and which formed immunoglobulin M (IgM) plaques. […] As summarized in Experiments 4 and 5 spergualin inhibited the production of IgG and IgE.
CDF 1 mice (6-10 wk old, female) were immunized by intravenous injection of 1×10^8 sheep red blood cells. The mice were intraperitoneally administered varying doses (see Table 3 below) of the test compound for a period of 3 days starting from the day following the intravenous injection. Four days later, spleen cells were isolated from the mice and the number of IgM plaque-forming cells was counted by a known method (Yata et al.; Gan to Kagaku Ryoho (Cancer and Chemotherapy), vol. 2, pp. 903-908, 1975). The percentage inhibition of IgM antibody production was calculated by (1-B/A)×100 wherein A is the count for a control group (given physiological saline) and B, for the treated group.

[3] = tested on: IgE antibody production; test: Inhibition of IgE antibody production against egg albumin (passive cutaneous anaphylaxis titer); format: in vivo, BALB/c mice; conditions: 50 mg/kg/day i.p., ± S.D.
Experimental: BALB/c mice (7 wk old, female) were challenged by intraperitoneal administration of 10 μg of egg albumin together with 4 mg of aluminum hydroxide gel. Thereafter, the mice were intraperitoneally administered 50 mg/kg/day of the test compound in accordance with the schedules shown in Table 5. After the challenge, blood was drawn from the fundus of each mouse at 10-day intervals for serum collection. The antibody titer of IgE in the serum was determined by passive cutaneous anaphylaxis as follows. Fischer 344 rats (female, 10 wk old) were injected with 0.05 ml of a diluted serum into the dorsal skin. Four hours later, 1 mg of egg albumin and 0.5 ml of 1% Evans blue were injected into the tail vein, and the final serum dilution that produced a blue spot of a diameter of at least 5 mm 30 minutes after the intravenous injection was used as a measure of the antibody titer.

[4] = tested on: Allokiller T-lymphocyte; test: Inhibition of allokiller T-lymphocyte genesis (51Cr release from P815 mastocytoma); format: in vivo, C 57 BL/b mice
Experimental: 3×10^7 P815 mastocytoma cells were administered intraperitoneally to C 57 BL/b mice (10 wk old). Twelve days later, spleen cels were isolated and used as effector cells (E). Target cells (T) which were ^51 Cr labelled P815 mastocytoma cells were challenged by the effector cells at varying E/T ratios and the allokiller activity was assayed in terms of the percentage release ^51 Cr. Spergualin was administered for nine consecutive days starting on the day following the transplantation or a single administration was made on the 9th day.

[5] = tested on: Skin allograft rejection (SHR to Fischer rats); test: Inhibition of rejection of skin allograft; format: in vivo; conditions: ± S.D.
Text: In the next place, the present inventors conducted a skin graft test with rats. In accordance with the method of Denham et al. (Denham et al., International Archives of Allergy and Applied Immunology, vol. 62, pp. 443-458, 1980), the skin of the tail of SHR rats was peeled and allografted onto Fischer rats. […] The inhibitory action of spergualin on tissue rejections is expected to manifest itself not only in skin transplantation but also in the transplantation of such organs as the kidney, heart, spleen, lung, liver, bone marrow and endocrine organs.
Skin sections (5×10 mm) were peeled from the tails of SHR rats (female, 10 wk old) and transplanted to Fischer rats (female, 10 wk old) on the back. Varying doses of spergualin were administered intraperitoneally for a consecutive period of 10 or 20 days starting on the day following the transplantation. Complete necrosis of the graft was used as a measure of rejection and the inhibitory action of the compound was evaluated in terms of how long the rejection was postponed. […] The longer the period of administration, the greater the inhibitory action.

N=C(N)NCCCCC(O)CC(=O)NC(O)C(=O)NCCCCNCCCN (centres unmarked) [spergualin (trihydrochloride)]
^3 H--thymidine uptake ([1]; 10 μg/ml): 38,842 ± 21,573 dpm | ^3 H--thymidine uptake ([1]; 100 μg/ml): 396 ± 216 dpm | inhibition at 10 µg/mL ([1]; Mus musculus, 10 μg/ml): 83.4% | inhibition at 100 µg/mL ([1]; Mus musculus, 100 μg/ml): 99.8% | IgM plaque-forming cell count ([2]; 1 mg/kg/day i.p.): 1,304 ± 188 cells/10^6 spleen cells × 100 | IgM plaque-forming cell count ([2]; 5 mg/kg/day i.p., significant (P < 0.001)): 632 ± 87 cells/10^6 spleen cells × 100 | IgM plaque-forming cell count ([2]; 10 mg/kg/day i.p., significant (P < 0.001)): 392 ± 87 cells/10^6 spleen cells × 100 | IgM plaque-forming cell count ([2]; 25 mg/kg/day i.p., significant (P < 0.001)): 149 ± 53 cells/10^6 spleen cells × 100 | IgM plaque-forming cell count ([2]; 50 mg/kg/day i.p., significant (P < 0.001)): 64 ± 24 cells/10^6 spleen cells × 100 | inhibition at 1 mg/kg/day ([2]; Mus musculus, Erythrocyte, ip, 72 h, IgM, 1 mg/kg/day i.p.): 10.3% | inhibition at 5 mg/kg/day ([2]; Mus musculus, Erythrocyte, ip, 72 h, IgM, 5 mg/kg/day i.p.): 56.5% | inhibition at 10 mg/kg/day ([2]; Mus musculus, Erythrocyte, ip, 72 h, IgM, 10 mg/kg/day i.p.): 73% | inhibition at 25 mg/kg/day ([2]; Mus musculus, Erythrocyte, ip, 72 h, IgM, 25 mg/kg/day i.p.): 89.7% | inhibition at 50 mg/kg/day ([2]; Mus musculus, Erythrocyte, ip, 72 h, IgM, 50 mg/kg/day i.p.): 95.5% | IgE antibody titer, 10 days ([3]; days 1-8 after challenge): 13±33 dilutions | IgE antibody titer, 20 days ([3]; days 1-8 after challenge): 60±31 dilutions | IgE antibody titer, 30 days ([3]; days 1-8 after challenge): 320±0 dilutions | IgE antibody titer, 40 days ([3]; days 1-8 after challenge): 320±0 dilutions | IgE antibody titer, 10 days ([3]; days 1-16 after challenge): 0±0 dilutions | IgE antibody titer, 20 days ([3]; days 1-16 after challenge): 8±9 dilutions | IgE antibody titer, 30 days ([3]; days 1-16 after challenge): 80±120 dilutions | IgE antibody titer, 40 days ([3]; days 1-16 after challenge): 200±131 dilutions | IgE antibody titer, 10 days ([3]; days 9-16 after challenge): 120±98 dilutions | IgE antibody titer, 20 days ([3]; days 9-16 after challenge): 110±106 dilutions | IgE antibody titer, 30 days ([3]; days 9-16 after challenge): 320±0 dilutions | IgE antibody titer, 40 days ([3]; days 9-16 after challenge): 480±392 dilutions | Percent release of ^51 Cr ([4]; 5 mg/kg/day, days 1-9 after transplantation, E/T ratio 5): 6% | Percent release of ^51 Cr ([4]; 5 mg/kg/day, days 1-9 after transplantation, E/T ratio 10): 8% | Percent release of ^51 Cr ([4]; 5 mg/kg/day, days 1-9 after transplantation, E/T ratio 20): 17% | Percent release of ^51 Cr ([4]; 50 mg/kg, single administration day 9, E/T ratio 5): 21% | Percent release of ^51 Cr ([4]; 50 mg/kg, single administration day 9, E/T ratio 10): 30% | Percent release of ^51 Cr ([4]; 50 mg/kg, single administration day 9, E/T ratio 20): 51% | Percent release of ^51 Cr ([4]; 50 mg/kg/day, days 1-9 after transplantation, E/T ratio 5): 0% | Percent release of ^51 Cr ([4]; 50 mg/kg/day, days 1-9 after transplantation, E/T ratio 10): 0% | Percent release of ^51 Cr ([4]; 50 mg/kg/day, days 1-9 after transplantation, E/T ratio 20): 1% | Average No. of days before rejection ([5]; Run 1, 6.25 mg/kg/day i.p., days 1-10): 10.2 ± 2.6 days | Average No. of days before rejection ([5]; Run 1, 12.5 mg/kg/day i.p., days 1-10): 13.0 ± 4.2 days | Average No. of days before rejection ([5]; Run 1, 25.0 mg/kg/day i.p., days 1-10): 14.9 ± 6.9 days | Average No. of days before rejection ([5]; Run 1, 50.0 mg/kg/day i.p., days 1-10): 17.0 ± 3.2 days | Average No. of days before rejection ([5]; Run 2, 25.0 mg/kg/day i.p., days 1-10): 15.0 ± 5.2 days | Average No. of days before rejection ([5]; Run 2, 25.0 mg/kg/day i.p., days 1-20): 31.0 ± 1.9 days
